Measurements from the NIST ThermoML archive (doi:10.1021/je5008789).
± gives the expanded uncertainty stated by the source.

Conditions: Liquid; for mass density: Vibrating tube method; for viscosity: Vibrating wire viscometry

CC(C)CCCC(C)CCCC(C)CCCCC(C)CCCC(C)CCCC(C)C (configuration not stated) [2,6,10,15,19,23-hexamethyltetracosane]
Conditions	mass density [kg/m3]	viscosity [mPa·s]
338.19 K, 1050 kPa	779.26 ± 1.6	6.815 ± 0.14
338.19 K, 21210 kPa	792.77 ± 1.6	9.666 ± 0.2
338.2 K, 40640 kPa	803.93 ± 1.7	13.19 ± 0.28
338.2 K, 60420 kPa	814.29 ± 1.7	17.71 ± 0.37
338.2 K, 79830 kPa	822.46 ± 1.8	23.48 ± 0.49
338.2 K, 100230 kPa	831.55 ± 1.9	30.94 ± 0.65
338.2 K, 140240 kPa	845.12 ± 1.9	52.3 ± 1.1
338.2 K, 161300 kPa	851.46 ± 2	68.14 ± 1.4
338.21 K, 119820 kPa	837.96 ± 1.9	40.32 ± 0.85
338.22 K, 940 kPa	778.91 ± 1.6	6.808 ± 0.14
338.29 K, 1010 kPa	779.46 ± 1.6	6.83 ± 0.14
373.12 K, 620 kPa	756.02 ± 1.5	3.122 ± 0.066
373.12 K, 780 kPa	756.09 ± 1.5	3.125 ± 0.066
373.12 K, 20350 kPa	771.55 ± 1.6	4.234 ± 0.089
373.12 K, 39970 kPa	784.5 ± 1.6	5.565 ± 0.12
373.12 K, 60030 kPa	795.89 ± 1.7	7.219 ± 0.15
373.12 K, 80950 kPa	806.36 ± 1.8	9.293 ± 0.2
373.12 K, 101160 kPa	815.48 ± 1.9	11.72 ± 0.25
373.12 K, 120420 kPa	823.57 ± 1.9	14.4 ± 0.3
373.12 K, 140640 kPa	831.1 ± 2	17.83 ± 0.38
373.12 K, 159510 kPa	837.61 ± 2	21.73 ± 0.46
373.12 K, 180460 kPa	843.98 ± 2.1	26.77 ± 0.56
373.12 K, 201380 kPa	850.63 ± 2.1	32.72 ± 0.69
388.13 K, 890 kPa	746.65 ± 1.5	2.432 ± 0.055
388.13 K, 20290 kPa	762.98 ± 1.6	3.25 ± 0.069
388.13 K, 80490 kPa	799.25 ± 1.8	6.828 ± 0.14
388.13 K, 101530 kPa	809.12 ± 1.9	8.548 ± 0.18
388.13 K, 120960 kPa	817.16 ± 1.9	10.46 ± 0.22
388.13 K, 139900 kPa	824.59 ± 2	12.58 ± 0.26
388.14 K, 1100 kPa	746.78 ± 1.5	2.436 ± 0.055
388.14 K, 40380 kPa	776.95 ± 1.6	4.242 ± 0.089
388.14 K, 59850 kPa	788.53 ± 1.7	5.392 ± 0.11
388.14 K, 160800 kPa	832.35 ± 2	15.31 ± 0.32
388.14 K, 180610 kPa	838.96 ± 2.1	18.4 ± 0.39
388.14 K, 201470 kPa	845.55 ± 2.1	22.16 ± 0.47
413.17 K, 1050 kPa	730.56 ± 1.5	1.691 ± 0.037
413.18 K, 20110 kPa	748.65 ± 1.6	2.233 ± 0.047
413.18 K, 40280 kPa	763.94 ± 1.6	2.885 ± 0.061
413.18 K, 60200 kPa	776.68 ± 1.7	3.62 ± 0.076
413.21 K, 80740 kPa	788.16 ± 1.8	4.485 ± 0.095
413.22 K, 100350 kPa	797.82 ± 1.9	5.454 ± 0.12
413.22 K, 120460 kPa	806.56 ± 1.9	6.574 ± 0.14
413.24 K, 610 kPa	730.1 ± 1.5	1.68 ± 0.037
413.24 K, 140200 kPa	815.07 ± 2	7.831 ± 0.17
413.25 K, 160570 kPa	822.8 ± 2	9.322 ± 0.2
413.25 K, 181450 kPa	829.85 ± 2.1	11.12 ± 0.23
413.25 K, 202090 kPa	836.75 ± 2.2	13.06 ± 0.27
433.18 K, 1120 kPa	717.8 ± 1.5	1.324 ± 0.029
433.19 K, 60430 kPa	767.55 ± 1.7	2.785 ± 0.059
433.19 K, 160660 kPa	815.65 ± 2.1	6.774 ± 0.14
433.19 K, 180700 kPa	823.09 ± 2.1	7.891 ± 0.17
433.19 K, 200370 kPa	830.05 ± 2.2	9.057 ± 0.19
433.2 K, 80190 kPa	779.13 ± 1.8	3.392 ± 0.072
433.21 K, 100280 kPa	789.84 ± 1.9	4.072 ± 0.086
433.21 K, 120040 kPa	798.72 ± 1.9	4.865 ± 0.1
433.21 K, 140200 kPa	807.55 ± 2	5.754 ± 0.12
433.31 K, 600 kPa	717.04 ± 1.4	1.309 ± 0.028
433.35 K, 20500 kPa	737.74 ± 1.5	1.749 ± 0.037
433.36 K, 680 kPa	717.22 ± 1.4	1.309 ± 0.028
433.36 K, 40310 kPa	753.83 ± 1.6	2.231 ± 0.047
452.85 K, 201770 kPa	823.37 ± 2.2	6.867 ± 0.14
452.95 K, 163170 kPa	809.3 ± 2.1	5.261 ± 0.11
452.95 K, 180270 kPa	815.84 ± 2.1	5.937 ± 0.12
453.15 K, 1150 kPa	704.74 ± 1.4	1.062 ± 0.023
453.16 K, 20190 kPa	726.4 ± 1.5	1.405 ± 0.03
453.17 K, 40450 kPa	744.09 ± 1.6	1.796 ± 0.038
453.18 K, 60480 kPa	758.43 ± 1.7	2.222 ± 0.047
453.18 K, 80140 kPa	770.59 ± 1.8	2.681 ± 0.057
453.18 K, 100410 kPa	781.58 ± 1.9	3.214 ± 0.068
453.19 K, 160150 kPa	808.49 ± 2.1	5.142 ± 0.11
453.2 K, 120790 kPa	791.61 ± 1.9	3.8 ± 0.08
453.2 K, 140400 kPa	800.32 ± 2	4.438 ± 0.094
453.2 K, 180710 kPa	816.55 ± 2.1	5.945 ± 0.12
472.81 K, 1050 kPa	691.59 ± 1.4	0.867 ± 0.019
473.03 K, 200210 kPa	815.83 ± 2.2	5.348 ± 0.11
473.04 K, 1050 kPa	691.45 ± 1.4	0.868 ± 0.019
473.05 K, 150 kPa	690.19 ± 1.4	0.853 ± 0.019
473.05 K, 20040 kPa	715.2 ± 1.5	1.151 ± 0.025
473.05 K, 39890 kPa	733.71 ± 1.6	1.465 ± 0.031
473.05 K, 120200 kPa	783.48 ± 1.9	3.031 ± 0.064
473.05 K, 140440 kPa	792.71 ± 2	3.531 ± 0.075
473.05 K, 160340 kPa	801 ± 2.1	4.073 ± 0.086
473.05 K, 180470 kPa	808.83 ± 2.2	4.671 ± 0.098
473.06 K, 60230 kPa	749.17 ± 1.7	1.81 ± 0.039
473.06 K, 79910 kPa	761.86 ± 1.8	2.175 ± 0.046
473.07 K, 100370 kPa	773.42 ± 1.9	2.59 ± 0.055
